Key:
Aβ = Aβ level in cultured rat neurons and astrocytes; format: cell-based, wistar rat; conditions: memantine 5 μM, donepezil 10 μM, docosahexaenoic acid 10 μM; for Fold reduction in Aβ: metal mixture-induced, rat astrocytes and neurons, α-tocopherol 10 μM; for effect on levels of Aβ in the cellular model of AD: Vitamin E 10 μM
Protocol: (§1) The pregnant wistar rats were sacrificed by cervical dislocation and the embryos were removed on the 16th day of gestation. The embryonic brain tissues were mechanically dissociated into individual cells in dissection media containing Glucose (1M), sucrose (1 M), HEPES Buffer (1M) and Hank's salt (1×). The resulting cells were centrifuged (1,500 rpm, 5 min), resuspended in NEUROBASAL medium containing B-27 supplement (Invitrogen, Carlsbad, Calif.), L-glutamine (0.5 mM), penicillin (100 U/ml) and streptomycin (100 μg/ml) and plated into 60 mm dishes. The culture media was changed every 2 days.
(§2) The astrocytes from rat brain were isolated and cultured. Briefly, prefrontal cortices of 1-day-old wistar rats were dissected out and digested with trypsin for 10 min at 37° C. A single cell suspension was obtained by triturating, and the cells were seeded onto poly-L-lysine (100 μg/ml)-coated plates. The cultures were maintained in DMEM/F12 with 10% heat-inactivated fetal bovine serum, 100 U/ml penicillin, and […] streptomycin. The confluent cells were rinsed twice with serum-free media and then detached with 0.25% trypsin with ethylenediaminetetraacetic acid and sub-cultured.
(§3) The astrocytes and neurons were grown to 80% confluence, pre-incubated in reduced serum (0.5% fetal bovine serum [FBS]) medium for 2 h, and then treated with a mixture of As, Cd, and Pb (Group 1 and 2, Table 2 for neurons, and Table 3 for astrocytes) in the form of NaAsO2, CdCl2 and Pb(C2H3O2)2, respectively in Milli Q water for 16 h, and incubated in a humidified tissue culture incubator at 37° C. with 5% CO2-95% air. The NaAsO2, and CdCl2 readily dissolved in water, while Pb(C2H3O2)2 was dissolved by adding 0.043% acetic acid in water. To identify the synergistic nature, the astrocytes and neurons were treated with metal mixture as well as individual metals (Group 1-5 of Table 2 for neurons, and Table 3 for astrocytes).
(§4) The astrocytes and neurons were treated, washed with PBS and suspended in 100 μl of CelLytic™ MT Cell Lysis Reagent protease inhibitor cocktail (a mixture of 4-(2-aminoethyl)benzenesulfonyl fluoride, pepstatinA, E-64, bestatin, leupeptin, and aprotinin)] and kept on ice for 20 min. The cells were homogenized using a Teflon homogenizer and centrifuged at 15,000 rpm for 30 min at 4° C., and the supernatant was collected. SDS-PAGE and western blotting was done with APP (1:1000), Aβ-40 (1:1000), Aβ-42 (1:1000), IL-1α(1:1000), IL-1β (1:1000) and IL-1R1. […] The samples were detected by chemiluminescence with super signal west femto max substrate. Relative expression of each protein was determined by densitometric quantification of blots using VersaDoc Gel Imaging System (BioRad, Hercules, CF). […]

APP [1] = assay: APP level in cultured rat neurons and astrocytes; format: cell-based, wistar rat; conditions: memantine 5 μM, donepezil 10 μM, docosahexaenoic acid 10 μM; for Fold reduction in APP: metal mixture-induced, rat astrocytes and neurons, α-tocopherol 10 μM; for effect on levels of APP in the cellular model of AD: Vitamin E 10 μM
Protocol: as §1, §2, §3, §4

Aβ-42 = Aβ-42 level in rat brain cortex and hippocampus, western blotting; format: in vivo, wistar rat
Protocol: (§5) All animal-handling procedures were carried out in accordance with the current regulations of the Indian Institute of Toxicology Research Animal Ethics Committee, and with its prior approval for using the animals. The pregnant female wistar rats were housed in a 12-h […] cycle environment with ad libitum diet and water. The rats were divided into six groups (n=30 per group), gavage-treated with the metal mixture (Table 1). The metal mixture treatment was at two concentrations (1× and 10×; Groups 1-3, Table 1) for dose-dependent study. To identify the synergistic nature, the animals were treated in mixture as well as individually with the metals (Group 1-6 of Table 1). The heavy metals were As, Cd and Pb, fed in the form of NaAsO2, CdCl2 and Pb(C2H3O2)2, respectively, in Milli Q water. The NaAsO2, and CdCl2 readily dissolved in water, while Pb(C2H3O2)2 was dissolved by adding 0.043% acetic acid in water. The dams (pregnant rats and lactating mother rats) were daily treated with the metals in water from gestation day 5 (G-05) until the pups weaned (postnatal day-21, P-21). From P-22, the postnatal rats were directly treated with the metals until P-90. The tissues were collected at P-24, P-60 or P-90. The male rats were selected for the study, and rats from separate litters served as independent subjects.
(§6) Tissues of the cerebral cortex and hippocampus from five to seven postnatal wistar rats were harvested, snap-frozen in liquid nitrogen, and stored at −80° C. until further investigation. SDS-PAGE and western blotting was performed with APP (1:1000), Aβ-40 (1:1000), Aβ-42 (1:1000), APP-CTF-β (1:1000), presenilin (1:1000), IL-1α (1:1000), IL-1β (1:1000) and IL-1R1 (1:1000), RAGE (1:1000) and pGP (1:1000). […] The samples were detected by chemiluminescence with super signal west femto max substrate. Relative expression of each protein was determined by densitometric quantification of blots using VersaDoc Gel Imaging System (BioRad, Hercules, CF). […]

Aβ-40 = assay: Aβ1-40 level in rat cortex and hippocampus, ELISA; format: in vivo, wistar rat
Protocol: as §5

APP [2] = assay: APP level in rat brain cortex and hippocampus, western blotting; format: in vivo, wistar rat
Protocol: as §5, §6

[3] = memantine 10 mg/kg body weight, donepezil 1.5 mg/kg body weight
[4] = metal mixture-induced, rat brain, two week treatment, memantine 10 mg/kg, donepezil 1.5 mg/kg with 10X-MM in P-90 rats
[5] = hippocampal insertion, once at P-90 in 10X-MM-treated rats, dissected after 10 days

| Molecule | Fold reduction in Aβ (Aβ) [fold] | Fold reduction in APP (APP [1]) [fold] | effect on levels of Aβ in the cellular model of AD (Aβ) | effect on levels of APP in the cellular model of AD (APP [1]) | further results |
| --- | --- | --- | --- | --- | --- |
| CC/C=C\C/C=C\C/C=C\C/C=C\C/C=C\C/C=C\CCC(=O)O [Docosahexaenoic acid] | 2.3 ± 0.0853 | 1.25 ± 0.0265 | – | – | – |
| CC12CC3CC(C)(C1)CC(N)(C3)C2 [Memantine] | 1.4 ± 0.052 | 1.3 ± 0.0392 | suppressed | suppressed | effect on Aβ1-42 in the non-transgenic wistar rat model of AD (Aβ-42; [3]): suppress; fold reduction in Aβ-42 (Aβ-42; [4]): 2.42 ± 0.0143 fold; effect on Aβ1-40 in the non-transgenic wistar rat model of AD (Aβ-40; [3]): suppress; fold reduction in Aβ-40 (Aβ-40; [4]): 2.54 ± 0.0099 fold; effect on APP in the non-transgenic wistar rat model of AD (APP [2]; [3]): suppress; Fold reduction in APP (APP [2]; [4]): 1.69 ± 0.0510 fold |
| Cc1c(C)c2c(c(C)c1O)CC[C@@](C)(CCC[C@H](C)CCC[C@H](C)CCCC(C)C)O2 [α-tocopherol] | – | – | suppressed | suppressed | – |
| IL1-Ra: Rat recombinant IL-1 receptor antagonist, R&D systems (protein, UniProt P25086 27-178, looked up) Interleukin-1 receptor …: HPAGKRPCKMQAFRIWDTNQKTFYLRNNQLIAGYLQGPNTKLEEKIDMVPIDFRNVFLGIHGGKLCLSCVKSGDDTKLQLEEVNITDLNKNKEEDKRFTFIRSETGPTTSFESLACPGWFLCTTLEADHPVSLTNTPKEPCTVTKFYFQEDQ | – | – | – | – | effect on Aβ1-42 in As, Cd and Pb-mixture treated rat brain (Aβ-42; [5]): suppressed; effect on APP in As, Cd and Pb-mixture treated rat brain (APP [2]; [5]): suppressed |

From patent US20160081312A1, “MODEL OF ALZHEIMER'S DISEASE” (priority 2013, published 2016)
